Measured values as given in patent US20140134261A1 (priority 2012, published 2014).
Read-outs that look alike come from different tables or passages of the source.

What was measured:
μ-opiate receptor = μ-opiate receptor (Homo sapiens, UniProt P35372); conditions: cited from earlier work
[1] = male rats, diet with 30% lard, capsaicin at 0.14% of the diet; cited from earlier work
[2] = 1 mg/kg systemic, before cecal ligation and puncture, late sepsis period; cited from earlier work
[3] = system: Rat peritoneal macrophages; conditions: 10 μM, pre-incubated 1 h; cited from earlier work
macrophages = conditions: preincubation with 10 μM; cited from earlier work
[4] = system: PC-3 prostate cancer xenografts; conditions: given orally; cited from earlier work
NF-κ-B = conditions: pretreatment of human myeloid ML-1a cells; cited from earlier work
TRPV1 receptor = TRPV1 receptor (Homo sapiens, UniProt Q8NER1); conditions: cited from earlier work
[5] = in vitro; cited from earlier work
[6] = system: cytochrome (CYP) enzymes present in the human liver; conditions: in vitro; cited from earlier work
[7] = humans, after ingestion of 26.6 mg of capsaicin; cited from earlier work

Chain of μ-opiate receptor (P35372 whole entry): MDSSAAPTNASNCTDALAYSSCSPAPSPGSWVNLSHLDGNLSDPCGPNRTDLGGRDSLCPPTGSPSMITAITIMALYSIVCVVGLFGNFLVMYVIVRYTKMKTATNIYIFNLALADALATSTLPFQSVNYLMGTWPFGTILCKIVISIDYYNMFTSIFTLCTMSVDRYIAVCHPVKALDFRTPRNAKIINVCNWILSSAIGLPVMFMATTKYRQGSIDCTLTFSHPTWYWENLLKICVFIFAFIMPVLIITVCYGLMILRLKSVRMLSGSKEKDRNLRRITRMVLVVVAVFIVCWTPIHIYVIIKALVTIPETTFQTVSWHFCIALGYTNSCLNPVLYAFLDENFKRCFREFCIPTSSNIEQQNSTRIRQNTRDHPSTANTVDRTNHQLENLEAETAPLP
Chain of TRPV1 receptor (Q8NER1 whole entry): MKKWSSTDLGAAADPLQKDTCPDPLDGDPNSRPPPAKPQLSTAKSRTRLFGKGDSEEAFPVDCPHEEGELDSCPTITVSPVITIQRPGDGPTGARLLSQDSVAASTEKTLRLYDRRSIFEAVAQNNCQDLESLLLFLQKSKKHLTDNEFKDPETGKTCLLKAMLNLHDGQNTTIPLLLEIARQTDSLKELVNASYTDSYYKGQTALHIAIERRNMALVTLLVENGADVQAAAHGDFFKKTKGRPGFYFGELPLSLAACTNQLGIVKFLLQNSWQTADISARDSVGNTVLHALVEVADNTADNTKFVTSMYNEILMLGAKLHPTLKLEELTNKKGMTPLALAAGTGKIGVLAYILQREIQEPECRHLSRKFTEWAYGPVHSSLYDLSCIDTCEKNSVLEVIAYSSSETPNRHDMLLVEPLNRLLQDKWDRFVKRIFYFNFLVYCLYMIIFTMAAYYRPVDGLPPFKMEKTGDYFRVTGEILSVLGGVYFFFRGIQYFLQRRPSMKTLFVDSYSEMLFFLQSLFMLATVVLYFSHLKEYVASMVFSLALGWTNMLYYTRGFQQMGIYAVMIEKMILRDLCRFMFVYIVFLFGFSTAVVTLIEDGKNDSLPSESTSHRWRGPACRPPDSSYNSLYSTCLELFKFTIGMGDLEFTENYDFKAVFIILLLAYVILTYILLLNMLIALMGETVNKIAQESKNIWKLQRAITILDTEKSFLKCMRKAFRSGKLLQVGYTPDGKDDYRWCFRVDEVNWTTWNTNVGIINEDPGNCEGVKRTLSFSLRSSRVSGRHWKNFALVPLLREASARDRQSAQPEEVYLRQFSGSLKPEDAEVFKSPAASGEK

0-desmethyltramadol [Example M1]
analgesic potency relative to the parent drug tramadol (μ-opiate receptor): at least twice the analgesic potency

COc1cc(CNC(=O)CCCCC=CC(C)C)ccc1O [capsaicin, 8-methyl-N-vanillyl-6-nonenamide]
serum triglyceride levels versus high-fat diet without capsaicin [1]: significantly lower | lipid peroxidation in various tissues, including lung and liver [2]: decreased | inhibition of incorporation of arachidonic acid into membrane lipids [3]: 76% | inhibition of leukotriene B4 [3]: 46% | inhibition of leukotriene C4 [3]: 48% | inhibition of prostaglandin E2 [3]: 48% | superoxide anions, hydrogen peroxide, and nitrite radical production (macrophages): completely inhibited | growth of xenografts as measured by size [4]: significantly slowed | TNF-mediated activation of NF-κ-B (NF-κ-B): blocked | duration of pain at the site of application (about 1 gram of 8% capsaicin ointment on forehand): ~48 h | burning sensation at the site of application (about 1 gram ointment (14.25% capsaicin palmitate or 8% capsaicin) on forehand, six healthy volunteers, asked after 30 minutes): intense burning | duration of pain and inflammation (application of 8% capsaicin): almost a day | time to intense pain at the site of application (application of 8% capsaicin): ≤ 15 min | burning pain at the site of application (topical ointment, about 14.25% capsaicin palmitate (about 8% of capsaicin) or 8% capsaicin, no topical anesthetic): intense pain | affinity as exogenous agonist for the TRPV1 receptor (TRPV1 receptor): low nanomolar affinity | metabolism in human skin [5]: quite slow | metabolism by CYP enzymes in the human liver [6]: metabolized rapidly | Cmax [7]: 2.5 (0.1) ng ml^−1 | Tmax [7]: 47.1 (2.0) min

Palmitoyl Ester of Capsaicin USP (Formula I, R=—(CH2)14—CH3) [capsaicin palmitate]
burning pain at the site of application (human, in vivo): almost no burning pain | burning sensation at the site of application (human, in vivo): did not cause any burning sensation
